What was measured:
[1] = target: rat recombinant D3 receptors (Rattus norvegicus (Rat), UniProt P19020); assay: D3 receptor binding; details: for Ki: [3H]spiperone, rat recombinant D3 in Sf9 cells
male Wistar rats [2] = assay: Catalepsy test; assay type: in vivo; details: rat; for Catalepsy (MED): oral, minimum effective cataleptic dose; for TI, therapeutic index - catalepsy MED divided by amphetamine hypermotility ED50: in vivo
[3] = target: D2 receptor (rat brain striatal membrane preparation) (Rattus norvegicus (Rat), UniProt P61169); assay: D2 receptor binding; details: [3H]spiperone, rat striatal membranes
Sequence of D2 receptor (rat brain striatal membrane preparation) (P61169 whole entry): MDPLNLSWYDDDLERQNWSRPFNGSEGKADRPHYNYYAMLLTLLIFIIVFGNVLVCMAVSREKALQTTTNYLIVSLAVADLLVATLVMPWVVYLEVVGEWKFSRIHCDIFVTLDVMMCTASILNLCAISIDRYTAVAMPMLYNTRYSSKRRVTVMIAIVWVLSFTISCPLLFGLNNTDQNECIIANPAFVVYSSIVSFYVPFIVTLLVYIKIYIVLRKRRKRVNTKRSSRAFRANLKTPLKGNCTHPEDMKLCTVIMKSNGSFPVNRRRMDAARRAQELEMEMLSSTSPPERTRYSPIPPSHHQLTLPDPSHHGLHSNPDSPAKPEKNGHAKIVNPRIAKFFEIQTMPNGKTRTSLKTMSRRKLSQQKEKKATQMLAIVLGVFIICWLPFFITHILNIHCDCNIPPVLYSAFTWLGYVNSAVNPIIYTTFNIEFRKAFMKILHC

[4] = target: adrenergic alpha-1 receptors (rat cortical membrane preparation); assay: Alpha-1 receptor binding; details: [3H]-prazosine, rat cortical membranes; read-out: α-1 Ki
male Wistar rats [5] = assay: Scopolamine-induced learning disturbance in the water-labyrinth; assay type: in vivo, rat
Description: 6. Scopolamine-Induced Learning Disturbance in the Water-Labyrinth
The learning process of rats was assessed in a 3-choice point water-labyrinth system. The number of directional turning errors was recorded in three daily trials for three experimental days. Male Wistar rats weighing 180-200 g (n=10 per groups) were treated orally with vehicle or the test compounds 1 hour before each daily session. Scopolamine (3 mg/kg ip.) as amnestic agent was injected 30 minutes prior to the first daily trial. Mean±SE of errors committed in all the trials was calculated in each group. Percent inhibition of scopolamine-induced increase in the number of errors was calculated for each dose of the tested compound.

male Wistar rats [6] = assay: Amphetamine-induced hypermotility; assay type: in vivo; details: oral, rat, d-amphetamine 0.5 mg/kg sc.; for ED50: read-out: Inhibition of amphetamine-induced hypermotility (ED50)
Description: 4. Amphetamine-Induced Hypermotility
One hour after the oral administration of doses of the test compound or vehicle, male Wistar rats were subcutaneously treated with d-amphetamine (0.5 mg/kg, sc.) and were individually placed in activity cages for one hour. Locomotor activity was measured in a four-channel activity monitor equipped with infrared photobeams Horizontal movement was determined as the number of beam interruptions. Mean±SE of horizontal activity data of each group was calculated. Percent inhibition of amphetamine-induced increase in locomotion was calculated for each dose of the tested compound. The ED-50 value was determined by linear regression fitted to the dose-response plot.

Sequence of rat recombinant D3 receptors (P19020 whole entry): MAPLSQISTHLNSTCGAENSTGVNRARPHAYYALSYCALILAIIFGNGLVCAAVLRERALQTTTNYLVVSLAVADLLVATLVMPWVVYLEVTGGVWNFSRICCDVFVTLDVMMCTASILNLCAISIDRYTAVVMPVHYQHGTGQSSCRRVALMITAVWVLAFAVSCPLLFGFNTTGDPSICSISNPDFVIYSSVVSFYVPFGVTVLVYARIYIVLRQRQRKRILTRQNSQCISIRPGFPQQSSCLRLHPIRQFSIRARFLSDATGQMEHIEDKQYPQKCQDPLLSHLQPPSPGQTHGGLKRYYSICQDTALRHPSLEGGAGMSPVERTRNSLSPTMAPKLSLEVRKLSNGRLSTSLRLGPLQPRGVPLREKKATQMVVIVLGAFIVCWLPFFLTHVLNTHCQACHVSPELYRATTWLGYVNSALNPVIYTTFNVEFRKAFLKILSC

| Structure (SMILES) | Sel. = D2/D3 selectivity, Ki for D2 receptor divided by Ki for D3 receptor [1] | Ki [1] | Ki [3] | Ki [4] | further results |
| --- | --- | --- | --- | --- | --- |
| CCNc1nc(Cl)c(Cl)c(N2CCN(CC[C@H]3CC[C@H](NC(C)=O)CC3)CC2)n1 [Compound 6, trans-N-(4-{2-[4-(5,6-dichloro-2-ethylamino-pyrimidin-4-yl)-piperazin-1-yl]-ethyl}-cyclohexyl)-acetamide] | 23 | – | – | > 1000 nM | – |
| CNc1nc(Cl)c(Cl)c(N2CCN(CC[C@H]3CC[C@H](NC(=O)N(C)C)CC3)CC2)n1 [Compound 8] | 7 | 1 to 3 nM | 15 to 50 nM | > 1000 nM | % inhibition of scopolamine-induced learning disturbance (male Wistar rats [5]; dose 0.025 mg/kg oral): 38%; % inhibition of scopolamine-induced learning disturbance (male Wistar rats [5]; dose 0.05 mg/kg oral): 65%; % inhibition of scopolamine-induced learning disturbance (male Wistar rats [5]; dose 1 mg/kg oral): 31%; Catalepsy (MED) (male Wistar rats [2]): >25 mg/kg; TI, therapeutic index - catalepsy MED divided by amphetamine hypermotility ED50 (male Wistar rats [2]): >179; Inhibition of amphetamine-induced hypermotility (ED50) (male Wistar rats [6]): 0.14 mg/kg |
| CCNC(=O)N[C@H]1CC[C@H](CCN2CCN(c3nc(NC)nc(Cl)c3Cl)CC2)CC1 [Compound 10, Trans-1-(4-{2-[4-(5,6-dichloro-2-methylamino-pyrimidin-4-yl)-piperazin-1-yl]-ethyl}-cyclohexyl)-3-ethyl-urea] | 17 | – | – | – | – |
| CCC(=O)N[C@H]1CC[C@H](CCN2CCN(c3nc(NC)nc(Cl)c3Cl)CC2)CC1 [Compound 11] | 43 | < 1 nM | 5 to 15 nM | > 1000 nM | – |
| Cc1cc2c(s1)Nc1ccccc1N=C2N1CCN(C)CC1 [Olanzapine, reference compound] | – | – | – | – | % inhibition of scopolamine-induced learning disturbance (male Wistar rats [5]; dose 1 mg/kg oral): −12%; % inhibition of scopolamine-induced learning disturbance (male Wistar rats [5]; dose 3 mg/kg oral): −49%; ED50 (male Wistar rats [6]): 1.8 mg/kg |
| Cc1nc2n(c(=O)c1CCN1CCC(c3noc4cc(F)ccc34)CC1)CCCC2 [Risperidone, reference compound] | – | – | – | – | % inhibition of scopolamine-induced learning disturbance (male Wistar rats [5]; dose 0.5 mg/kg oral): −15%; ED50 (male Wistar rats [6]): 0.15 mg/kg |

The next lines start with results.

| Sel. = D2/D3 selectivity, Ki for D2 receptor divided by Ki for D3 receptor [1] | Ki [1] | Ki [3] | Ki [4] | Structure (SMILES) | further results |
| --- | --- | --- | --- | --- | --- |
| 22 | < 1 nM | 15 to 50 nM | – | CNc1nc(Cl)c(Cl)c(N2CCN(CC[C@H]3CC[C@H](NC(C)=O)CC3)CC2)n1 [Compound 1, Trans-N-(4-{2-[4-(5,6-dichloro-2-methylamino-pyrimidin-4-yl)-piperazin-1-yl]-ethyl}-cyclohexyl)-acetamide] | Catalepsy (MED) (male Wistar rats [2]): 100 mg/kg; TI, therapeutic index - catalepsy MED divided by amphetamine hypermotility ED50 (male Wistar rats [2]): 714 |
| 27 | – | – | > 1000 nM | CNc1nc(Cl)c(Cl)c(N2CCN(CC[C@H]3CC[C@H](NC(N)=O)CC3)CC2)n1 [Compound 2, Trans-(4-{2-[4-(5,6-dichloro-2-methylamino-pyrimidin-4-yl)-piperazin-1-yl]-ethyl}-cyclohexyl)-urea] | – |
| – | – | – | > 1000 nM | CNc1nc(Cl)c(Cl)c(N2CCN(CC[C@H]3CC[C@H](NC(=O)N4CCOCC4)CC3)CC2)n1 [Compound 7, trans-morpholine-4-carboxylic acid (4-{2-[4-(5,6-dichloro-2-methylamino-pyrimidin-4-yl)-piperazin-1-yl]-ethyl}-cyclohexyl)-amide] | – |

— patent publication US8802672B2, “Pyrimidinyl-piperazines useful as D3/D2 receptor ligands” (Richter Gedeon Nyrt., priority 2007, dated 2014)
